Measured values: patent publication US20240180872A1, “METHODS AND COMPOUNDS OF CANNABIDIOL, MELATONIN AND AKBA FOR TREATING PANCREATIC CANCER” (priority 2021, published 2024)

How the values were obtained:
[1] = system: U251 Glioblastoma cell line; assay: Cytotoxicity assay (MTT, 72 hours, daily administration) in U251; type: cell-based; details: Homo sapiens, U-251, read-out: % VIABILITY ± S.D.
Text: (§1) The combinations were effective in other human tumor cell lines and we tested in glioblastoma cell line and endometrial cancer cell Additional tests include data obtained from two independent experiments, six wells for dose.

[2] = system: PCEM004a endometrial cancer cell line; assay: Cytotoxicity assay (MTT, 72 hours, daily administration) in PCEM004a; type: cell-based; details: Homo sapiens, read-out: % VIABILITY ± S.D.
Text: as §1

[3] = system: pancreatic adenocarcinoma associated genes; assay: TaqMan Array gene expression in PANC-1, normalized for GAPDH; details: 24 hs, CBD 3.8, MLT 200, AKBA 7.5 micrograms/ml
Protocol: Total RNA from untreated or CBD, MLT, AKBA alone and in combination treated cell lines was extracted using Rneasy Mini kit (Qiagen, Milan, Italy). One microgram of total RNA from each sample was subjected to reverse transcription in a total volume of 20 μL using the High-Capacity cDNA Archive Kit (Applied Biosystem, Foster City, […], USA) according to the instructions. cDNAs were analyzed by qRT-PCR performed using an IQ5 Multicolor Real time PCR Detection system. Quantitative real-time gene expression was performed with the TaqMan® Array Human Pancreatic Adenocarcinoma 96-well Plate, containing 92 assays to pancreatic adenocarcinoma associated genes and 4 assays to candidate endogenous control genes, was purchased (Thermo Fisher, Grand Island, NY, USA) and used to evaluate the treatments in modulating PDAC-related genes (Table 1). Measurement of different housekeeping genes (GAPDH; HPRT1; GUSB) on the samples was used to normalize mRNA content. The gene expression levels of treated cell lines were expressed as relative fold compared with untreated or vehicle-treated cells.
To elucidate the molecular events induced by CBD, MLT and AKBA alone and in combination, 92 genes involved in PDAC progression and aggressiveness were evaluated by Taqman Array. Both cell lines were treated with CBD, MLT and AKBA alone and in combination, and the molecular pathways of PDAC associated gene were evaluated.
Target mRNA levels were normalized for GAPDH expression.

PANC-1 cell line = assay: Cytotoxicity assay (MTT, 72 hours, daily administration) in PANC-1; details: Homo sapiens, PANC-1, read-out: % VIABILITY ± S.D.
Protocol: (§2) Human pancreatic ductal adenocarcinoma (PANC-1 and MIAPaCa-2) cell lines were purchased by Sigma Aldrich (Milan, Italy) and cultured in DMEM high glucose medium (EuroClone, Milan, Italy) supplemented with 10% of fetal bovine serum (FBS), 2 mM L-glutamine, 100 IU/mL penicillin, 100 mg streptomycin and 1 mM sodium pyruvate. Cell lines were maintained at 37° C. with 5% CO2 and 95% of humidity.
(§3) 3×10^4 cells/mL were seeded in 96-well plates in a final volume of 100 L/well. After one day of incubation, compounds or vehicles, alone or in combination, were added and six replicates were used for each treatment and all experiments were repeated three times. In all the experiments, the treatment was daily added, after washing with fresh medium. After 72 hours cell viability was investigated by adding 0.8 mg/mL of 3-[4,5-dimethylthiazol-2-yl]-2,5 diphenyl tetrazolium bromide (MTT) (Sigma Aldrich) to the media. After 3 h the supernatant was removed, and the pellet of salt crystals was solubilized with 100 μL/well of DMSO. The absorbance of the sample against a background control was measured at 570 nm using an ELISA reader microliter plate (BioTek Instruments, Winooski, VT, USA).
(§4) Cytotoxicity in PDAC cell lines: The effect of CBD, MLT and AKBA in reducing cell viability was evaluated at 72 hours, post daily administration, in PDAC cell lines. Cells were treated with different doses of CBD, MLT and AKBA (up to 1 mg) and percentage of cell viability was evaluated by the MTT assay. […] The compounds were administered daily for 72 hours, as in previous experiments at the desired doses. […] MTT assay was used to analyse the cell cytotoxicity.

MIAPaCa-2 cell line = assay: Cytotoxicity assay (MTT, 72 hours, daily administration) in MIAPaCa-2; details: Homo sapiens, MIA PaCa-2, read-out: % VIABILITY ± S.D.
Protocol: as §2, §3, §4

Work on CC(=O)O[C@@H]1CC[C@@]2(C)[C@@H](CC[C@]3(C)[C@@H]2C(=O)C=C2[C@@H]4[C@@H](C)[C@H](C)CC[C@]4(C)CC[C@]23C)[C@@]1(C)C(=O)O [AKBA, (3R,4R,4aR,6aR,6bS,8aR,11R,12S,12aR,14aR,14bS)-3-acetyloxy-4,6a,6b,8a,11,12,14b-heptamethyl-14-oxo-1,2,3,4a,5,6,7,8,9,10,11,12,12a, 14a-tetradecahydropicene-4-carboxylic acid] yielded a viability at 5 µg/mL ([1]; AKBA 5 micrograms/ml) of 100 ± 5.3%, a viability at 7.5 µg/mL ([1]; AKBA 7.5 micrograms/ml) of 100 ± 6.6% and a viability at 10 µg/mL ([1]; AKBA 10 micrograms/ml) of 100 ± 2.2%. The viability at 15 µg/mL ([1]; AKBA 15 micrograms/ml) was 76.4 ± 4.2%, the viability at 5 µg/mL ([2]; AKBA 5 micrograms/ml) was 100 ± 7.5% and the viability at 7.5 µg/mL ([2]; AKBA 7.5 micrograms/ml) was 98.4 ± 6.3%. The viability at 10 µg/mL ([2]; AKBA 10 micrograms/ml) was 87.4 ± 5.8%, the viability at 15 µg/mL ([2]; AKBA 15 micrograms/ml) was 60.2 ± 5.4% and the “AKT3 mRNA relative expression” value ([3]; VEI 0.00) was 0.00. For the same compound, the “ARHGEF7 mRNA relative expression” value ([3]; VEI 0.00) was 0.00, the “BCL2 mRNA relative expression” value ([3]; VEI 0.00) was 0.00 and the “CCND2 mRNA relative expression” value ([3]; VEI 0.00) was 0.00. The “CDKN2B mRNA relative expression” value ([3]; VEI 0.00) was 0.20, the “CYP2E1 mRNA relative expression” value ([3]; VEI 0.00) was 0.00 and the “EGF mRNA relative expression” value ([3]; VEI 0.00) was 0.00. For the same compound, the “IGF1 mRNA relative expression” value ([3]; VEI 0.00) was 0.00, the “IL6 mRNA relative expression” value ([3]; VEI 0.00) was 0.00 and the “KDR mRNA relative expression” value ([3]; VEI 0.00) was 0.00. The “KIT mRNA relative expression” value ([3]; VEI 0.00) was 0.00, the “MAPK3 mRNA relative expression” value ([3]; VEI 0.00) was 0.00 and the “MMP1 mRNA relative expression” value ([3]; VEI 0.00) was 0.02. The “MMP3 mRNA relative expression” value ([3]; VEI 0.00) was 0.00, the “TGFA mRNA relative expression” value ([3]; VEI 0.00) was 0.02 and the “TGFB2 mRNA relative expression” value ([3]; VEI 0.00) was 0.12. For the same compound, the “JAK2 mRNA relative expression” value ([3]; VEI 0.01) was 0.04, the “JAK3 mRNA relative expression” value ([3]; VEI 0.01) was 0.03 and the “MMP7 mRNA relative expression” value ([3]; VEI 0.01) was 0.03. For the same compound, the “MMP9 mRNA relative expression” value ([3]; VEI 0.01) was 0.03, the “PK3CA mRNA relative expression” value ([3]; VEI 0.01) was 0.02 and the “RAC2 mRNA relative expression” value ([3]; VEI 0.01) was 0.01. For the same compound, the “RB1 mRNA relative expression” value ([3]; VEI 0.01) was 0.15, the “TGFB3 mRNA relative expression” value ([3]; VEI 0.01) was 0.05 and the “TGFBR1 mRNA relative expression” value ([3]; VEI 0.02) was 0.07. For the same compound, the “BRCA2 mRNA relative expression” value ([3]; VEI 0.03) was 0.10, the “CDKN2D mRNA relative expression” value ([3]; VEI 0.03) was 0.05 and the “MDM2 mRNA relative expression” value ([3]; VEI 0.03) was 0.04. The “RHOB mRNA relative expression” value ([3]; VEI 0.03) was 0.05, the “CDKN2C mRNA relative expression” value ([3]; VEI 0.04) was 0.12 and the “PK3R1 mRNA relative expression” value ([3]; VEI 0.04) was 0.03. For the same compound, the “PTGS2 mRNA relative expression” value ([3]; VEI 0.04) was 0.08, the “STATSB mRNA relative expression” value ([3]; VEI 0.04) was 0.20 and the “MAPK1 mRNA relative expression” value ([3]; VEI 0.05) was 0.60. The “SMAD2 mRNA relative expression” value ([3]; VEI 0.05) was 0.04, the “CCND1 mRNA relative expression” value ([3]; VEI 0.06) was 0.10 and the “MAP2K2 mRNA relative expression” value ([3]; VEI 0.06) was 0.10. For the same compound, the “PK3CD mRNA relative expression” value ([3]; VEI 0.06) was 0.05, the “TGFBR2 mRNA relative expression” value ([3]; VEI 0.06) was 0.10 and the “VEGFA mRNA relative expression” value ([3]; VEI 0.06) was 0.45. The “VEGFB mRNA relative expression” value ([3]; VEI 0.06) was 0.18, the “CCNA2 mRNA relative expression” value ([3]; VEI 0.07) was 0.10 and the “CCNE2 mRNA relative expression” value ([3]; VEI 0.07) was 0.06. For the same compound, the “EZF3 mRNA relative expression” value ([3]; VEI 0.07) was 0.07, the “SMAD4 mRNA relative expression” value ([3]; VEI 0.07) was 0.09 and the “SOS1 mRNA relative expression” value ([3]; VEI 0.07) was 0.10. The “TGFB1 mRNA relative expression” value ([3]; VEI 0.07) was 0.15, the “MAP2K1 mRNA relative expression” value ([3]; VEI 0.08) was 0.10 and the “MMP2 mRNA relative expression” value ([3]; VEI 0.08) was 0.20. For the same compound, the “VEGFC mRNA relative expression” value ([3]; VEI 0.08) was 0.12, the “CCNE1 mRNA relative expression” value ([3]; VEI 0.09) was 0.10 and the “CDK2 mRNA relative expression” value ([3]; VEI 0.09) was 0.10. For the same compound, the “KRAS mRNA relative expression” value ([3]; VEI 0.09) was 0.09, the “RAC1 mRNA relative expression” value ([3]; VEI 0.09) was 0.10 and the “REL mRNA relative expression” value ([3]; VEI 0.09) was 0.08. The “STAT2 mRNA relative expression” value ([3]; VEI 0.09) was 0.11, the “CDKN1B mRNA relative expression” value ([3]; VEI 0.10) was 0.10 and the “CDKN2A mRNA relative expression” value ([3]; VEI 0.10) was 0.12. The “RELA mRNA relative expression” value ([3]; VEI 0.10) was 0.10, the “AKT1 mRNA relative expression” value ([3]; VEI 0.11) was 0.20 and the “PK3CB mRNA relative expression” value ([3]; VEI 0.11) was 0.16. For the same compound, the “FIGF mRNA relative expression” value ([3]; VEI 0.14) was 0.00, the “TP53 mRNA relative expression” value ([3]; VEI 0.14) was 0.38 and the “EZF4 mRNA relative expression” value ([3]; VEI 0.16) was 0.18. The “NFKB2 mRNA relative expression” value ([3]; VEI 0.16) was 0.10, the “EZF1 mRNA relative expression” value ([3]; VEI 0.17) was 0.14 and the “SMAD3 mRNA relative expression” value ([3]; VEI 0.17) was 0.20. The “STAT1 mRNA relative expression” value ([3]; VEI 0.18) was 0.31, the “BRAF mRNA relative expression” value ([3]; VEI 0.22) was 0.18 and the “BIRC5 mRNA relative expression” value ([3]; VEI 0.23) was 0.22. The “JAK1 mRNA relative expression” value ([3]; VEI 0.23) was 1.10, the “CDK4 mRNA relative expression” value ([3]; VEI 0.24) was 0.25 and the “EGFR mRNA relative expression” value ([3]; VEI 0.24) was 0.18. For the same compound, the “RAF1 mRNA relative expression” value ([3]; VEI 0.25) was 0.08, the “CCNB1 mRNA relative expression” value ([3]; VEI 0.27) was 0.20 and the “ERBB2 mRNA relative expression” value ([3]; VEI 0.27) was 0.07. The “SRC mRNA relative expression” value ([3]; VEI 0.27) was 0.14, the “GRB2 mRNA relative expression” value ([3]; VEI 0.31) was 0.38 and the “BCL2L1 mRNA relative expression” value ([3]; VEI 0.35) was 0.23. For the same compound, the “HSP90AA1 mRNA relative expression” value ([3]; VEI 0.35) was 0.22, the “NFKB1 mRNA relative expression” value ([3]; VEI 0.35) was 0.10 and the “RHOA mRNA relative expression” value ([3]; VEI 0.37) was 0.30. For the same compound, the “ELK1 mRNA relative expression” value ([3]; VEI 0.41) was 0.11, the “RELB mRNA relative expression” value ([3]; VEI 0.42) was 0.12 and the “CDC42 mRNA relative expression” value ([3]; VEI 0.45) was 0.02. The “CDKN1A mRNA relative expression” value ([3]; VEI 0.49) was 0.28, the “AKT2 mRNA relative expression” value ([3]; VEI 0.50) was 0.41 and the “HBEGF mRNA relative expression” value ([3]; VEI 0.53) was 0.44. For the same compound, the “NOTCH1 mRNA relative expression” value ([3]; VEI 1.03) was 0.05, the “STAT6 mRNA relative expression” value ([3]; VEI 1.38) was 0.13 and the “STAT3 mRNA relative expression” value ([3]; VEI 4.45) was 0.18. The viability at 5 µg/mL (PANC-1 cell line) was 92.1 ± 5.3%, the viability at 7.5 µg/mL (PANC-1 cell line) was 86.2 ± 6.6% and the viability at 10 µg/mL (PANC-1 cell line) was 78.2 ± 5.9%. It also gave a viability at 15 µg/mL (PANC-1 cell line) of 55.3 ± 4.4%, a viability at 5 µg/mL (MIAPaCa-2 cell line) of 110 ± 7.3% and a viability at 7.5 µg/mL (MIAPaCa-2 cell line) of 74.8 ± 6.2%. The viability at 10 µg/mL (MIAPaCa-2 cell line) was 55.3 ± 4.8% and the viability at 15 µg/mL (MIAPaCa-2 cell line) was 12.1 ± 0.9%.
